{"source": "patent US20250325467A1", "about": "“COMPOSITIONS FOR PREVENTING OR TREATING SKIN AGING” (ESTETRA SRL, priority 2021, published 2025)", "assay_type_in_all_cases": "cell-based", "key": {"[1]": {"tested_on": "Normal Human Dermal Fibroblasts (NHDFs)", "test": "Colonization of a standard acellular area (IBIDI chamber gap closure) by fibroblasts", "conditions": "vs ethanol control; for NHDF Migration (+MMC) (colonization of the acellular area): presence of MMC, 6 h and 24 h", "description": "(§1) The study consists in an in vitro assay aiming to evaluate the properties of E4 and E2 at 4 concentrations each on keratinocytes and fibroblasts. In this assay, the measurement of the colonization of a standard acellular surface generated from a confluent monolayer of cells using a dedicated culture device (IBIDI chamber) is performed. The assay is performed in absence and in presence of a proliferation inhibitor to focus on cell proliferation and migration or on migration only, respectively.\nNormal Human forskin-derived Dermal Fibroblats (NHDFs, ATCC) cells were grown in phenol-free Dulbecco's Modified Eagle Medium (DMEM, ThermoFisher Scientific) supplemented with 10% of Foetal Bovine Serum (FBS, ThermoFisher Scientific), L-glutamine and antibiotics. The cells were maintained in a humidified incubator at 37° C. with a 5% CO2 atmosphere.\n(§2) Cells were plated in 2-well silicone inserts with a defined cell free gap (IBIDI chambers; IBIDI GmbH, 80209) that was previously inserted on 12-well culture plates. This culture device allows to create a standardized 500 μm±100 μm cell free gap for monitoring cell colonization. 24 h after seeding, when the culture reached high confluency, cells in the insert were treated, or not, with mitomycin C (MMC) at 10 μg/ml during 2 h. After these 2 hours, the insert was removed, and cells were treated with E2 or E4 in presence or not of MMC for additional 2 h. Then, if appropriate, the culture medium was removed and cells were treated with E2 or E4 for 22 h, in absence of MMC.\n(§3) For the assay, keratinocytes were plated in Epilife medium without HKGS and all the treatments were performed in this medium. Fibroblasts were plated in DMEM medium containing only 2,5% of FBS and the treatments were performed in absence of FBS.\n(§4) E2 and E4 were applied at 4 concentrations each (10^−7M, 10^−8M, 10^−9M, 10^−10M). In parallel, cells were treated with a positive control (HKGS 1% for human keratinocytes and PDGF-BB at 10 ng/ml for human fibroblasts).\n(§5) To monitor cell colonization and to evaluate the gap closure rate, pictures of the gap were taken after different times: at time 0 h, corresponding to the beginning of the treatment with E2 or E4 and to the removal of the culture insert, at time 6 h and at time 24 h (corresponding to the end of the treatments with E2 or E4). Pictures were taken with a microscope Zeiss (Axiover 25-10× objective) and with a camera Invenio2EIII (DeltaPix—Lux-Optic). The colonized areas were quantified from the pictures by the use of the WimAsis platform—WimScratch software. For each insert, 3 pictures were taken at each time. As each condition was performed in triplicates, it means a total of 9 pictures per condition and per time point of acquisition"}, "[2]": {"tested_on": "primary human dermal fibroblasts", "test": "Fibroblast monolayer scratch assay, human fibroblasts", "conditions": "human fibroblasts from three female donors; 10^−10M to 10^−6 M; pilot experiments", "description": "(§6) Human skin was transferred to the laboratory in holding media (DMEM containing 4% penicillin-streptomycin and Amphotericin B solution) within 30 minutes of collection. Once defatted, the skin was rinsed in HBSS with 4% PSA followed by DPBS without antibiotics, then cut into thin strips and floated on 0.2% Dispase II in DPBS overnight at 4° C., followed by manual separation of the epidermis from the dermis. Primary human epidermal keratinocytes and primary human dermal fibroblasts were then isolated.\n(§7) Confluent wells of both primary keratinocytes and fibroblasts were subjected to a highly validated scratch wounding procedure (using a 1 mL sterile filter tip). Post-scratching, cells were rinsed with DPBS and cell-specific media containing treatments added to each well. Cells were imaged on a ptychographic live cell imaging platform (Livecyte 2™, Phasefocus) for 24-48 hours. Automated tracking of individual unlabeled cells will be combined with 3D cell measurements to quantify a range of wound-relevant cell parameters including scratch closure rate.\n(§8) Dose range finding experiments were conducted with E4 (10^−10M to 10^−6M) and E2 with and without Mitomycin C (MMC, to inhibit proliferation) using vehicle as negative controls."}, "[3]": {"tested_on": "Normal Human Epidermal Keratinocytes (NHEKs)", "test": "Colonization of a standard acellular area (IBIDI chamber gap closure) by keratinocytes", "conditions": "vs ethanol control, 6 h and 24 h; for NHEK Proliferation & Migration (colonization of the acellular area): absence of MMC; for NHEK Migration (+MMC) (colonization of the acellular area): presence of MMC", "description": "as §1\nThe study was performed using cultures of Normal Human foreskin-derived Epidermal Keratinocytes (NHEKs, Lonza). The cells were grown in serum free Epilife medium (ThermoFisher Scientific) supplemented with Human Keratinocyte Growth Supplement (HKGS, ThermoFisher Scientific) and antibiotics. The cells were maintained in a humidified incubator at 37° C. with a 5% CO2 atmosphere.\nas §2, §3, §4, §5"}, "[4]": {"tested_on": "primary human epidermal keratinocytes", "test": "Keratinocyte migration scratch assay", "conditions": "15% HKGS; E4 10^−10M and 10^−7M; compared with E2", "description": "as §6, §7, §8"}, "[5]": {"tested_on": "mouse lymphoma cell line L5178Y TK^+/−", "test": "Generation of reactive oxygen species (ROS) in mouse lymphoma cells", "conditions": "test item 1 to 3000 μM; 3 h exposure; vs vehicle control; three experiments", "description": "The objective of the study was to investigate the generation of reactive oxygen species (ROS) induced by the test item, estetrol (E4), in a mouse lymphoma cell line L5178Y TK^+/−.\nL5178Y TK^+/− cells in logarithmic phase of growth were plated in black 96 well cell culture plates at 1×10^4 cells in 90 μL of cell culture media. Controls and test item in triplicate were applied to the cells as a 10× concentrate in 10 μL of a 10% ethanol solution in PBS (final concentration of ethanol on plate was 1%). Cells were incubated for 3 hours at 37° C., 5% CO2, and the generation of ROS was evaluated by fluorescence with a ROS reagent: the ROS reagent was freshly prepared by dissolving one ampoule of reagent (50 μg) in 70 μL DMSO and further diluting this with 2.1 mL of pre-warmed PBS. 10 μL of ROS reagent was added to each well and the plate were shaken for 30 seconds in the dark. The plates were incubated approximately at 37° C., 5% CO2 for 1 h 30 min and fluorescence was read on a plate scanner with excitation at 492 nm and emission at 520 nm."}}, "note": "“Also recorded” adds a separate entry of the source.", "data": [{"smiles": "C[C@]12CC[C@@H]3c4ccc(O)cc4CC[C@H]3[C@@H]1[C@@H](O)[C@@H](O)[C@@H]2O", "note": "[E4, 1,3,5 (10)-estratrien-3,15alpha,16alpha,17beta-tetrol]", "values": [{"measurement": "NHDF Migration (+MMC) (colonization of the acellular area)", "setting": "[1]; 10^−7M", "value": "significantly increase the colonization of the acellular area; also recorded: significant activity"}, {"measurement": "NHDF Migration (+MMC) (colonization of the acellular area)", "setting": "[1]; 10^−8M", "value": "significantly increase the colonization of the acellular area; also recorded: significant activity"}, {"measurement": "colonization of the cell-free area by NHDF, overall", "setting": "[1]; absence of MMC, all four concentrations (10^−7M to 10^−10M)", "value": "not able to significantly increase the colonization of the cell-free area"}, {"measurement": "fibroblast migration / in vitro wound closure", "setting": "[2]", "value": "promotes in vitro wound closure to a similar extent as E2; also recorded: as effective as E2 in promoting fibroblast migration"}, {"measurement": "NHEK Proliferation & Migration (colonization of the acellular area)", "setting": "[3]; 10^−7M", "value": "significantly increased the colonization of the acellular area; also recorded: significantly increases the surface colonized"}, {"measurement": "NHEK Migration (+MMC) (colonization of the acellular area)", "setting": "[3]; 10^−7M", "value": "significantly increased the colonization of the acellular area; also recorded: significantly increases the surface colonized"}, {"measurement": "NHEK Proliferation & Migration (colonization of the acellular area)", "setting": "[3]; 10^−10M", "value": "significantly increased the colonization of the acellular area; also recorded: significantly increases the surface colonized"}, {"measurement": "NHEK Migration (+MMC) (colonization of the acellular area)", "setting": "[3]; 10^−10M", "value": "significantly increased the colonization of the acellular area; also recorded: significantly increases the surface colonized"}, {"measurement": "impact on keratinocyte migration (wound closure)", "setting": "[4]", "value": "higher than the impact of E2"}, {"measurement": "levels of ROS", "setting": "[5]", "value": "dose-dependent decrease in the levels of ROS"}]}]}
